Source: patent US9428536B2, “Immunostimulatory G, U-containing oligoribonucleotides” (Zoetis Belgium SA, priority 2002, dated 2016)

How the values were obtained:
human PBMC = test: Human PBMC IL-12 p40 secretion, ELISA; type: cell-based
Procedure: Human peripheral blood mononuclear cells (PBMCs) were isolated from healthy donors, plated at 3×10^5 cells/well, stimulated in vitro with various test and control immunostimulatory agents for 16 hours, and then analyzed by enzyme-linked immunosorbent assay (ELISA) using matched antibody pairs from BD-Pharmingen for secreted cytokines IL-12 p40 and TNF-α, performed according to the manufacturer's protocol. Also included were certain negative controls, including medium alone and DOTAP (10 μg/200 μl culture well; “Liposomes”) alone. The control immunostimulatory agents included the imidazoquinolone R-848 (2 μg/ml), lipopolysaccharide (LPS; 1 μg/ml), Pam3Cys (5 μg/ml), poly IC (50 μg/ml), and CpG DNA (50 μg/ml). These are reported ligands for TLR7, TLR4, TLR2, TLR3, and TLR9, respectively. Test immunostimulatory agents included the following RNA molecules, each at 50 μg/ml, with and without DOTAP (10 μg total “with Liposomes” and “without Liposomes”, respectively): GUGUUUAC alone; GUAGGCAC alone; GUGUUUAC in combination with GUAGGCAC; GUAGGA; GAAGGCAC; CUAGGCAC; CUCGGCAC; and CCCCCCCC. These RNA oligonucleotides each contained a phosphorothioate linkage between the penultimate and 3′ terminal nucleoside.
The experiments described in the preceding example were repeated with varied concentrations of RNA oligonucleotides in order to assess the dose-response behavior of human PBMCs to G,U-containing RNA oligonucleotides of the invention. A total of 10, 3 or 1 μg RNA was added to 10 μg DOTAP and then added to the 200 μl culture wells. After 16 hours IL-12 p40 and TNF-α ELISAs were performed as described in Example 1. […]
RNA oligomers GUGUGUGU, GUGUGUG, GUGUGU, GUGUG, GUGU, GUG, and GU, with and without DOTAP, were added over a range of concentrations to overnight cultures of human PBMC. Culture supernatants were harvested, and human TNF-α, IL-12 p40, and IFN-α were measured by ELISA using matched antibody pairs from BD-Pharmingen according to the manufacturer's protocol. […]

[1] = system: wild type murine macrophages; test: Wild type murine macrophages in the presence of IFN-γ, IL-12 p40 ELISA; type: cell-based, mouse; conditions: FIG. 6 Panel A, 12 hours, RNA with DOTAP
Procedure: The following murine cells were isolated and incubated with various RNAs and other known TLR ligands in order to assess species-, cell type-, and signaling pathway-specificity: wild type macrophages in the presence of IFN-γ; MyD88-deficient macrophages in the presence of IFN-γ; J774 (mouse macrophage cell line); and RAW 264.7 (mouse macrophage cell line, e.g., ATCC TIB-71). Murine bone macrophages were generated from wild type or MyD88-deficient C57BL/6 mice by culturing bone marrow cells with 50 ng/ml M-CSF for 5 days. Cells were seeded at 25,000 cells/well and treated with 20 ng/ml IFN-γ for 16 hours. The murine macrophage cell lines RAW and J774 were seeded at 10,000 cells/well.
The following test and control agents were examined: R-848 (2 μg/ml), ODN 1668 (CpG DNA; 5′-[…]-3′; SEQ ID NO:7); LPS (1 μg/ml); poly IC (50 μg/ml); Pam3Cys (5 μg/ml); Ionomycin/TPA; the following RNA molecules, each with (“+Lipo”) and without DOTAP (10 μg/200 μl culture well): GUGUUUAC alone (RNA1); GUAGGCAC alone (RNA2); GUGUUUAC in combination with GUAGGCAC (RNA1/2); […] (RNA6; SEQ ID NO:8); […] (RNA9; SEQ ID NO:9); and the following DNA molecules, corresponding to RNA1, RNA2, and RNA1/2: GTGTTTAC alone (DNA1); GTAGGCAC alone (DNA2); and GTGTTTAC in combination with GTAGGCAC (DNA1/2). These RNA and DNA oligonucleotides each contained a phosphorothioate linkage between the penultimate and 3′ terminal nucleoside. RNA6 and RNA9 each contained in addition a phosphorothioate linkage between the penultimate and 5′ terminal nucleoside. RNA6 corresponds to a ribosomal RNA stem loop derived from Listeria monocytogenes. RNA9 corresponds to a stem loop derived from human immunodeficiency virus (HIV, an RNA retrovirus). The cells were cultured for 12 hours and supernatants were harvested. Murine IL-12 p40, IL-6, and TNF-α were measured by ELISA using matched antibody pairs from BD-Pharmingen according to the manufacturer's protocol.

CCOCc1nc2c(N)nc3ccccc3c2n1CC(C)(C)O [R-848, 4-amino-α,α-dimethyl-2-ethoxymethyl-1H-imidazo[4,5-c]quinoline-1-ethanol, reference compound]
IL-12 p40 response of human PBMC (in words) (human PBMC; Example 1, FIG. 1, 16 hours, RNA 50 μg/ml with and without DOTAP, R-848 2 μg/ml, LPS 1 μg/ml, Pam3Cys 5 μg/ml, poly IC 50 μg/ml): responsive
effect of DOTAP on the amount of IL-12 p40 secreted (human PBMC; Example 4, FIG. 5, presence versus absence of DOTAP, 16 hour incubation): about the same immunostimultory effect
IL-12 p40 secretion by wild type murine macrophages [1]: significant amounts
